Laboratory results: patent publication US20190038628A1, “USE OF INHIBITORS OF THE ACTIVITY OR FUNCTION OF PI3K FOR THE TREATMENT OF PRIMARY SJOGREN'S SYNDROME” (Novartis AG, priority 2016, published 2019)
Several values for one entry are separate records, joined by “and”; a condition that tells them apart may be missing. Equal entries are not always repeated. Where two headings read alike, the source gives them in different places.

Key:
[1] = tested on: Mouse BCR transgenic B cells; experiment: Proinflammatory cytokine release of mouse BCR transgenic B cells; assay type: cell-based; details: Mouse BCR tg B cell, stimulus HEL, mean of at least two experiments
Description: Purification of CD19^+ splenic B cells from MD4 HEL BcR Tg mice MD4 HEL BcR transgenic B10.BR (MD4 B10.BR) mice were a kind gift from Prof. Jose Moreno (Research Unit on Autoimmune Diseases, Centro Medico Nacional Siglo XXI, Mexico).
The spleens were isolated from MD4 B10.BR and non-transgenic litter control B10.BR mice after sacrificed by exposure to excess amount of isoflurane. The isolated spleens were suspended in RPMI1640 (Invitrogen, #31870), and dissociated by GentleMACS Dissociator (Miltenyi Biotec), and filtrated with Cell Strainer (BD Falcon, 70 μm mesh, #352350). […] The purity was determined via the proportion of CD19 cells in the separated fraction in FACS analysis, and was more than 95%.
FACS Data was analyzed, and their mean fluorescence intensity (MFI) were calculated with FlowJo software (Tree Star Inc). The IC50 values were calculated with GraphPad PRISM ver 6.0 software (GraphPad Software Inc).
One million of B cells purified from MD4 B10.BR as written in the section 2.1 was suspended in 200 μl of complete culture medium, and stimulated with 100 μM of HEL proteins with soluble CD40 ligand at 37° C., 5% CO2 for 48 hours. […] The data are represented as the mean of concentration (pg/ml) from triplicate samples, and IC50 values are calculated as described above. […]

[2] = tested on: Human Peripheral Blood Mononuclear Cells (PBMC); experiment: TLR9 ligand-induced CXCL13 production of human PBMC; assay type: cell-based; details: ODN stimulus; for CXCL13 in culture supernatant: individual donors 1-6; for CXCL13 in culture supernatant, mean: mean of 6 donors
Description: For evaluating the effect of compound A on the production of chemokines relevant for the formation of germinal centers, PBMC were isolated from Buffy Coat (collected through Inter-Regionale Blutspende of the Swiss Red Cross) by standard Ficoll gradient centrifugation using Ficoll-Paque plus (GE healthcare #17-1440-03) in Leucosep tubes (Greiner Bio-one #227289). Cells were washed two times with PBS and then resuspended at 2.2×10^6/mL in RPMI 1640 medium supplemented with 10% FBS, Gentamycine (50 ug/ml), Insulin-Transferrin-Selenium and P-Mercaptoethanol (50 uM).
PBMC were dispensed to 48-well plates (Costar #3548) and incubated with pre-diluted compound A resulting in a dilution with a final concentration of 0.3, 1 or 3 uM. Control samples were pretreated with DMSO to obtain a final concentration of 0.03% DMSO. Samples were mixed thoroughly and incubated in a humified incubator at 37° C. for 1 h. Cells were thereafter stimulated by the addition of the TLR9 agonist ODN M362 (Invivogen, #tlrl-m362) at a final concentration of 30 ug/ml or anti-IgM-Dextran (Finabiosolution #0004) at a final concentration of 2 ug/ml. Control samples were left unstimulated. Samples were mixed thoroughly and incubated in a humified incubator at 37° C. for 24 h.
After the stimulation, culture supernatants were harvested and chemokines quantified by Bio-Plex Multiplex immunoassay (CXCL13; Bio Rad #171 BK12MR2) or MSD V-Plex assay (IP-10; Meso Scale Diagnostics) or according to the manufacturer's instructions.

For `CCC(=O)N1CC[C@H](Nc2ncnc3c2CN(c2cnc(OC)c(C(F)(F)F)c2)CC3)C1` [Compound A, 1-{(S)-3-[6-(6-Methoxy-5-trifluoromethyl-pyridin-3-yl)-5,6,7,8-tetrahydro-pyrido[4,3-d]pyrimidin-4-ylamino]-pyrrolidin-1-yl}-propan-1-one], which IC50 ([1]; read-out: IC50 IL-6) is on record?
Its IC50 is 22 nM.

And the IC50 ([1]; read-out: IC50 TNFα)?
Its IC50 is 28 nM.

What about the inhibition at 0.3 µM ([2]; Homo sapiens, PBMC, Compound A 300 nM) of the same compound?
Its inhibition at 0.3 µM is 40%.

And the inhibition at 1 µM ([2]; Homo sapiens, PBMC, Compound A 1000 nM)?
The inhibition at 1 µM was 51%.

What about the inhibition at 3 µM ([2]; Homo sapiens, PBMC, Compound A 3000 nM) of the same compound?
Its inhibition at 3 µM is 55%.

What about the “CXCL13 in culture supernatant” value ([2]; Compound A 300 nM) of the same compound?
Its value is 8 pg/ml (2×) and 3 pg/ml and 39 pg/ml and 113 pg/ml and 51 pg/ml.

And the “CXCL13 in culture supernatant, mean” value ([2]; Compound A 300 nM)?
The value was 37 pg/mL.

And the “CXCL13 in culture supernatant” value ([2]; Compound A 1000 nM)?
The value was 7 pg/ml and 3 pg/ml and 42 pg/ml (2×) and 84 pg/ml and 6 pg/ml.

What about the “CXCL13 in culture supernatant, mean” value ([2]; Compound A 1000 nM) of the same compound?
The value was 31 pg/mL.

What about the “CXCL13 in culture supernatant” value ([2]; Compound A 3000 nM) of the same compound?
The value was 5 pg/mL and 3 pg/mL and 29 pg/mL and 86 pg/mL and 41 pg/mL and 4 pg/mL.

And the “CXCL13 in culture supernatant, mean” value ([2]; Compound A 3000 nM)?
The value was 28 pg/mL.
